Measurements reported in patent US20260345619A1 (Principia Biopharma Inc., priority 2023, published 2026).

Assay: Loss of asthma control (LOAC) events, 12-week ICS/LABA withdrawal study
Assay type: in vivo, human
Conditions: 400 mg TID
Excerpt: The general construct of this 12-week Loss of Asthma Control (LOAC) study consisted of a 4-week standardized ICS/LABA background therapy stabilization phase, a 4or 5-week background therapy withdrawal phase and a 3- or 4-week no background therapy phase, followed by a 4-week post IMP treatment safety follow-up period at the beginning of which, pre-screening asthma controller medications are restarted. Participants had access to short-acting β-agonist (SABA) reliever medication at all times during the protocol.
The primary endpoint was the proportion of patients with LOAC. The key secondary endpoint for the study was change in pre-bronchodilator FEV1 from baseline at EOT.
The primary endpoint was proportion of participants with LOAC during the 12-week treatment period.
Note that if the number of participants in some regions was too low, these regions may have been pooled with other regions. This strategy also applied to all the rest of the analyses where region was one of the covariates.
To assess the consistency in treatment effects across different subgroup levels, subgroup analyses were to be performed for the primary efficacy endpoint with respect to age group, gender, region, and other factors.
Secondary endpoints included pre-bronchodilator FEV1 change from baseline at EOT, ACQ-5 score change from baseline, and AQLQ score change from baseline. Other secondary and exploratory endpoints are described in Table 2.

[1] = all others than low EOS and low FeNO
[2] = baseline IgA <Median (2190) mg/L
[3] = baseline IgA ≥Median (2190) mg/L
[4] = baseline IgE <Median (121.85) IU/mL
[5] = baseline IgE ≥Median (121.85) IU/mL
[6] = baseline pre-BD FEV1 <Median (2.1955) L
[7] = baseline pre-BD FEV1 ≥Median (2.1955) L
[8] = blood eosinophil level 1 <0.15 (10^9/L)
[9] = blood eosinophil level 1 ≥0.15-<0.3 (10^9/L)
[10] = blood eosinophil level 1 ≥0.3 (10^9/L)
[11] = blood eosinophil level 2 <0.3 (10^9/L)
[12] = blood eosinophil level 2 ≥0.3 (10^9/L)
[13] = low EOS (<0.15) and low FeNO (<25)
[14] = percent predicted FEV1 group 1 <Median (77)
[15] = percent predicted FEV1 group 1 ≥Median (77)
[16] = percent predicted FEV1 group 2 <80
[17] = percent predicted FEV1 group 2 ≥80

Which results are given for `CC(C)(C=C(C#N)C(=O)N1CCC[C@@H](n2nc(-c3ccc(Oc4ccccc4)cc3F)c3c(N)ncnc32)C1)N1CCN(C2COC2)CC1` (mixture of isomers) [rilzabrutinib, (R)-2-[3-[4-amino-3-(2-fluoro-4-phenoxy-phenyl)pyrazolo[3,4-d]pyrimidin-1-yl]piperidine-1-carbonyl]-4-methyl-4-[4-(oxetan-3-yl)piperazin-1-yl]pent-2-enenitrile]?
OR vs. placebo [1]: 0.752; RD vs. Placebo [1]: −0.049; LOAC, number (atopic medical conditions: No): 8; OR vs. placebo (atopic medical conditions: No): 0.493; RD vs. Placebo (atopic medical conditions: No): −0.130; LOAC, number (atopic medical conditions: Yes): 4; OR vs. placebo (atopic medical conditions: Yes): 0.821; RD vs. Placebo (atopic medical conditions: Yes): −0.031; LOAC, number (background ICS dose High): 6; OR vs. placebo (background ICS dose High): 0.911; RD vs. Placebo (background ICS dose High): −0.011; LOAC, number (background ICS dose Medium): 6; OR vs. placebo (background ICS dose Medium): 0.421; RD vs. Placebo (background ICS dose Medium): −0.173; LOAC, number (baseline ACQ-5 >2): 6; OR vs. placebo (baseline ACQ-5 >2): 0.346; RD vs. Placebo (baseline ACQ-5 >2): −0.181; LOAC, number (baseline ACQ-5 ≤2): 6; OR vs. placebo (baseline ACQ-5 ≤2): 1.162; RD vs. Placebo (baseline ACQ-5 ≤2): 0.025; LOAC, number (baseline FeNO level 1 <25 ppb): 9; OR vs. placebo (baseline FeNO level 1 <25 ppb): 0.567; RD vs. Placebo (baseline FeNO level 1 <25 ppb): −0.065; LOAC, number (baseline FeNO level 1 ≥25 ppb): 3; OR vs. placebo (baseline FeNO level 1 ≥25 ppb): 0.798; RD vs. Placebo (baseline FeNO level 1 ≥25 ppb): −0.053; LOAC, number (baseline FeNO level 2 <35 ppb): 9; OR vs. placebo (baseline FeNO level 2 <35 ppb): 0.655; RD vs. Placebo (baseline FeNO level 2 <35 ppb): −0.029; LOAC, number (baseline FeNO level 2 ≥35 ppb): 3; OR vs. placebo (baseline FeNO level 2 ≥35 ppb): 0.628; RD vs. Placebo (baseline FeNO level 2 ≥35 ppb): −0.094; LOAC, number [2]: 6; OR vs. placebo [2]: 0.774; RD vs. Placebo [2]: −0.011; LOAC, number [3]: 6; OR vs. placebo [3]: 0.514; RD vs. Placebo [3]: −0.120; LOAC, number (baseline IgE <100 IU/mL): 4; OR vs. placebo (baseline IgE <100 IU/mL): 0.602; RD vs. Placebo (baseline IgE <100 IU/mL): −0.085; LOAC, number [4]: 6; OR vs. placebo [4]: 0.681; RD vs. Placebo [4]: −0.070; LOAC, number (baseline IgE ≥100 IU/mL): 8; OR vs. placebo (baseline IgE ≥100 IU/mL): 0.522; RD vs. Placebo (baseline IgE ≥100 IU/mL): −0.122; LOAC, number [5]: 6; OR vs. placebo [5]: 0.510; RD vs. Placebo [5]: −0.122; LOAC, number [6]: 7; OR vs. placebo [6]: 0.827; RD vs. Placebo [6]: −0.036; OR vs. placebo [7]: 0.362; RD vs. Placebo [7]: −0.176; LOAC, number [8]: 6; OR vs. placebo [8]: 0.716; RD vs. Placebo [8]: −0.062; LOAC, number [9]: 4; OR vs. placebo [9]: 1.619; RD vs. Placebo [9]: 0.072; LOAC, number [10]: 2; OR vs. placebo [10]: 0.139; RD vs. Placebo [10]: −0.363; LOAC, number [11]: 10; OR vs. placebo [11]: 1.019; RD vs. Placebo [11]: 0.047; LOAC, number [12]: 2; OR vs. placebo [12]: 0.146; RD vs. Placebo [12]: −0.350; LOAC, number [13]: 4; OR vs. placebo [13]: 0.441; RD vs. Placebo [13]: −0.157; LOAC, number [14]: 4; OR vs. placebo [14]: 0.452; RD vs. Placebo [14]: −0.129; LOAC, number [15]: 8; OR vs. placebo [15]: 0.599; RD vs. Placebo [15]: −0.078; LOAC, number [16]: 7; OR vs. placebo [16]: 0.736; RD vs. Placebo [16]: −0.047; OR vs. placebo [17]: 0.429; RD vs. Placebo [17]: −0.139; LOAC, number (smoking history Former): 2; OR vs. placebo (smoking history Former): 0.500; RD vs. Placebo (smoking history Former): −0.167; LOAC, number (smoking history Never): 10; OR vs. placebo (smoking history Never): 0.551; RD vs. Placebo (smoking history Never): −0.102
